{
  "source": "the supplement of paper PMC11208160",
  "data": [
    {"experiment": "recombinant barcode read abundance after kanamycin selection (control-corrected) (log10(CPM+1)); higher = more efficient recombination; sequences stand for … in AGTGCAGAGAAAATCGGCCAGTTTTCTCTGCCTGCAGTCCGCATGCCGT…AGATTTATGCAGCGGACTGCCTTTCTCCCAAAGTGATAAACCGGACAGTATCATGGACCGGTTTTCCCGGTAATCCGTATTTGCAAGGTTGGTTTCACT; site = the 11-nt target", "description": "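Pooled E. coli target-specificity screen for the IS621 bridge recombinase. Each library plasmid pairs an 11-nt target (CT core) with a bridge RNA whose target-binding loop (9-nt LTG + 4-nt RTG) is reprogrammed; the rest of the 177-nt WT IS621 bridge RNA scaffold is fixed. The plasmid is co-electroporated with a WT donor plasmid; recombinase is induced with 0.1 mM IPTG and recombinants are selected on kanamycin. Recombinant barcodes are sequenced, converted to CPM, averaged over two biological replicates and corrected by the unselected control CPM. Molecule = full bridge RNA written as DNA: LTG = specificity nt 1-9, RTG = reverse complement of specificity nt 8-11, in the WT scaffold.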", "values": [
      {"sequence": "AATAGGGCTTGGGTTCTAACCTGTTGCGG (site ACTAGGGCTCC)", "recombinant barcode read abundance (log10)": 0.294},
      {"sequence": "AATCGGCCTTGGGTTCTAACCTGTTGCGT (site AATAGGCCTAC)", "recombinant barcode read abundance (log10)": 0.375},
      {"sequence": "AATCGGCCTTGGGTTCTAACCTGTTGCGT (site AATCGGCCTAC)", "recombinant barcode read abundance (log10)": 1.85},
      {"sequence": "AATCGGCCTTGGGTTCTAACCTGTTGCGT (site AATGGGCCTAC)", "recombinant barcode read abundance (log10)": 0.0625},
      {"sequence": "AATCGGCCTTGGGTTCTAACCTGTTGCGT (site AATTGGCCTAC)", "recombinant barcode read abundance (log10)": 0.175},
      {"sequence": "AATGCTACTTGGGTTCTAACCTGTTGCAT (site AATGCTACTAT)", "recombinant barcode read abundance (log10)": 0.235},
      {"sequence": "AATGCTACTTGGGTTCTAACCTGTTGCAT (site TATGCTACTAT)", "recombinant barcode read abundance (log10)": 0.238},
      {"sequence": "AATGCTCCTTGGGTTCTAACCTGTTGCGT (site AATGCTCCTAA)", "recombinant barcode read abundance (log10)": 0.116},
      {"sequence": "AATGCTCCTTGGGTTCTAACCTGTTGCGT (site AATGCTCCTAC)", "recombinant barcode read abundance (log10)": 2.03},
      {"sequence": "AATGCTCCTTGGGTTCTAACCTGTTGCGT (site AATGCTCCTAG)", "recombinant barcode read abundance (log10)": 0.419},
      {"sequence": "AATGCTCCTTGGGTTCTAACCTGTTGCGT (site AATGCTCCTAT)", "recombinant barcode read abundance (log10)": 0.177},
      {"sequence": "AATGCTCCTTGGGTTCTAACCTGTTGCTT (site AATGCTCCTAA)", "recombinant barcode read abundance (log10)": 0.49},
      {"sequence": "AATGCTCCTTGGGTTCTAACCTGTTGCTT (site AATGCTCCTAC)", "recombinant barcode read abundance (log10)": 0.0515},
      {"sequence": "AATGCTCCTTGGGTTCTAACCTGTTGCTT (site AATGCTCCTAG)", "recombinant barcode read abundance (log10)": 0.103},
      {"sequence": "AATGCTCCTTGGGTTCTAACCTGTTGCTT (site AATGCTCCTAT)", "recombinant barcode read abundance (log10)": 0.135},
      {"sequence": "AATGCTTCTTGGGTTCTAACCTGTTGCTT (site AATGCTTCTAA)", "recombinant barcode read abundance (log10)": 0.398},
      {"sequence": "AATGCTTCTTGGGTTCTAACCTGTTGCTT (site GATGCTTCTAA)", "recombinant barcode read abundance (log10)": 0.143},
      {"sequence": "AATGGGACTTGGGTTCTAACCTGTTGCGA (site AATGGGACTCA)", "recombinant barcode read abundance (log10)": 0.331},
      {"sequence": "AATGGGACTTGGGTTCTAACCTGTTGCGA (site AATGGGACTTC)", "recombinant barcode read abundance (log10)": 2.42},
      {"sequence": "AATGGGACTTGGGTTCTAACCTGTTGCTG (site AATGGGACTCA)", "recombinant barcode read abundance (log10)": 2.47},
      {"sequence": "AATGGGACTTGGGTTCTAACCTGTTGCTG (site AATGGGACTTC)", "recombinant barcode read abundance (log10)": 1.55},
      {"sequence": "AATGGTCCTTGGGTTCTAACCTGTTGCCA (site AATGGTCCTTG)", "recombinant barcode read abundance (log10)": 0.588},
      {"sequence": "AATGGTCCTTGGGTTCTAACCTGTTGCCA (site CTAATATCTAT)", "recombinant barcode read abundance (log10)": 0.337},
      {"sequence": "AATTAGTCTTGGGTTCTAACCTGTTGCGG (site AATTAGTCTCC)", "recombinant barcode read abundance (log10)": 2.2},
      {"sequence": "AATTAGTCTTGGGTTCTAACCTGTTGCGG (site AGTTAGTCTCC)", "recombinant barcode read abundance (log10)": 0.312},
      {"sequence": "AATTGAGCTTGGGTTCTAACCTGTTGCCT (site AATTAAGCTAG)", "recombinant barcode read abundance (log10)": 0.0773},
      {"sequence": "AATTGAGCTTGGGTTCTAACCTGTTGCCT (site AATTCAGCTAG)", "recombinant barcode read abundance (log10)": 0.0625},
      {"sequence": "AATTGAGCTTGGGTTCTAACCTGTTGCCT (site AATTGAGCTAG)", "recombinant barcode read abundance (log10)": 0.887},
      {"sequence": "AATTGAGCTTGGGTTCTAACCTGTTGCCT (site AATTTAGCTAG)", "recombinant barcode read abundance (log10)": 0.242},
      {"sequence": "AATTGCCCTTGGGTTCTAACCTGTTGCCT (site AATTGCCCTAG)", "recombinant barcode read abundance (log10)": 0.369},
      {"sequence": "AATTGCCCTTGGGTTCTAACCTGTTGCCT (site ACTTGCCCTAG)", "recombinant barcode read abundance (log10)": 0.00964},
      {"sequence": "AATTGCCCTTGGGTTCTAACCTGTTGCCT (site AGTTGCCCTAG)", "recombinant barcode read abundance (log10)": 0.0557},
      {"sequence": "AATTGCCCTTGGGTTCTAACCTGTTGCCT (site ATTTGCCCTAG)", "recombinant barcode read abundance (log10)": 0.166},
      {"sequence": "AATTGGACTTGGGTTCTAACCTGTTGCTT (site AATTGGACTAA)", "recombinant barcode read abundance (log10)": 0.355},
      {"sequence": "AATTGGACTTGGGTTCTAACCTGTTGCTT (site CATTGGACTAA)", "recombinant barcode read abundance (log10)": 0.0957},
      {"sequence": "AATTGGACTTGGGTTCTAACCTGTTGCTT (site GATTGGACTAA)", "recombinant barcode read abundance (log10)": 0.0807},
      {"sequence": "AATTGGACTTGGGTTCTAACCTGTTGCTT (site TATTGGACTAA)", "recombinant barcode read abundance (log10)": 0.455},
      {"sequence": "AATTGTCCTTGGGTTCTAACCTGTTGCGT (site AATTGTCCTAA)", "recombinant barcode read abundance (log10)": 0.0377},
      {"sequence": "AATTGTCCTTGGGTTCTAACCTGTTGCGT (site AATTGTCCTAC)", "recombinant barcode read abundance (log10)": 1.17},
      {"sequence": "AATTGTCCTTGGGTTCTAACCTGTTGCGT (site AATTGTCCTAG)", "recombinant barcode read abundance (log10)": 0.154},
      {"sequence": "AATTGTCCTTGGGTTCTAACCTGTTGCGT (site AATTGTCCTAT)", "recombinant barcode read abundance (log10)": 0.0639},
      {"sequence": "ACAAACCCTTGGGTTCTAACCTGTTGCTA (site ACAAACCCTTA)", "recombinant barcode read abundance (log10)": 0.672},
      {"sequence": "ACAAACCCTTGGGTTCTAACCTGTTGCTA (site CTGGCAGCTAG)", "recombinant barcode read abundance (log10)": 0.85},
      {"sequence": "ACAAATCCTTGGGTTCTAACCTGTTGCCT (site ACAAAACCTAG)", "recombinant barcode read abundance (log10)": 0.116},
      {"sequence": "ACAAATCCTTGGGTTCTAACCTGTTGCCT (site ACAAACCCTAG)", "recombinant barcode read abundance (log10)": 0.292},
      {"sequence": "ACAAATCCTTGGGTTCTAACCTGTTGCCT (site ACAAAGCCTAG)", "recombinant barcode read abundance (log10)": 0.0186},
      {"sequence": "ACAAATCCTTGGGTTCTAACCTGTTGCCT (site ACAAATCCTAG)", "recombinant barcode read abundance (log10)": 0.591},
      {"sequence": "ACAACGACTTGGGTTCTAACCTGTTGCCT (site ACAACCACTAG)", "recombinant barcode read abundance (log10)": 0.0471},
      {"sequence": "ACAACGACTTGGGTTCTAACCTGTTGCCT (site ACAACGACTAG)", "recombinant barcode read abundance (log10)": 0.689},
      {"sequence": "ACAAGGCCTTGGGTTCTAACCTGTTGCAT (site ACAAGGCCTAT)", "recombinant barcode read abundance (log10)": 1.38},
      {"sequence": "ACAAGGCCTTGGGTTCTAACCTGTTGCAT (site TGCCCCTCTCG)", "recombinant barcode read abundance (log10)": 0.263},
      {"sequence": "ACAAGGGCTTGGGTTCTAACCTGTTGCTG (site ACAAGGGCTCA)", "recombinant barcode read abundance (log10)": 2.06},
      {"sequence": "ACAAGGGCTTGGGTTCTAACCTGTTGCTG (site GAGGCTACTAT)", "recombinant barcode read abundance (log10)": 0.531},
      {"sequence": "ACAATATCTTGGGTTCTAACCTGTTGCCT (site ACAATATCTAG)", "recombinant barcode read abundance (log10)": 0.774},
      {"sequence": "ACAATATCTTGGGTTCTAACCTGTTGCCT (site ACATGATCTAG)", "recombinant barcode read abundance (log10)": 0.242},
      {"sequence": "ACACATACTTGGGTTCTAACCTGTTGCCT (site ACACATACTAG)", "recombinant barcode read abundance (log10)": 0.302},
      {"sequence": "ACACATACTTGGGTTCTAACCTGTTGCCT (site ACGCATACTAG)", "recombinant barcode read abundance (log10)": 0.104},
      {"sequence": "ACACCCTCTTGGGTTCTAACCTGTTGCAG (site ACACCCTCTCT)", "recombinant barcode read abundance (log10)": 1.79},
      {"sequence": "ACACCCTCTTGGGTTCTAACCTGTTGCAG (site GGTATAACTTG)", "recombinant barcode read abundance (log10)": 0.271},
      {"sequence": "ACACCGTCTTGGGTTCTAACCTGTTGCCT (site ACACCGTCTAG)", "recombinant barcode read abundance (log10)": 2.12},
      {"sequence": "ACACCGTCTTGGGTTCTAACCTGTTGCCT (site AGACCTTCTAG)", "recombinant barcode read abundance (log10)": 0},
      {"sequence": "ACACGACCTTGGGTTCTAACCTGTTGCGG (site ACACGACCTCC)", "recombinant barcode read abundance (log10)": 2.48},
      {"sequence": "ACACGACCTTGGGTTCTAACCTGTTGCGG (site ACAGGAGCTCC)", "recombinant barcode read abundance (log10)": 0},
      {"sequence": "ACAGAGACTTGGGTTCTAACCTGTTGCAG (site ACAGAGACTCT)", "recombinant barcode read abundance (log10)": 1.35},
      {"sequence": "ACAGAGACTTGGGTTCTAACCTGTTGCAG (site ACGTAGACTCT)", "recombinant barcode read abundance (log10)": 0.113},
      {"sequence": "ACAGCTACTTGGGTTCTAACCTGTTGCCT (site ACAGCTACTAG)", "recombinant barcode read abundance (log10)": 1.84},
      {"sequence": "ACAGCTACTTGGGTTCTAACCTGTTGCCT (site ACAGCTTCTAG)", "recombinant barcode read abundance (log10)": 0.33},
      {"sequence": "ACAGCTACTTGGGTTCTAACCTGTTGCTT (site ACAGCTACTAA)", "recombinant barcode read abundance (log10)": 0.699},
      {"sequence": "ACAGCTACTTGGGTTCTAACCTGTTGCTT (site GCAGCTACTCA)", "recombinant barcode read abundance (log10)": 0.0436},
      {"sequence": "ACAGGGTCTTGGGTTCTAACCTGTTGCCT (site AAAGGGTCTAG)", "recombinant barcode read abundance (log10)": 0},
      {"sequence": "ACAGGGTCTTGGGTTCTAACCTGTTGCCT (site ACAGGGTCTAG)", "recombinant barcode read abundance (log10)": 2.32},
      {"sequence": "ACAGGGTCTTGGGTTCTAACCTGTTGCCT (site AGAGGGTCTAG)", "recombinant barcode read abundance (log10)": 0.193},
      {"sequence": "ACAGGGTCTTGGGTTCTAACCTGTTGCCT (site ATAGGGTCTAG)", "recombinant barcode read abundance (log10)": 0.355}
    ]}
  ]
}
